16 compounds from patent US20200163950A1, “PIPERIDINE-DIONE DERIVATIVES FOR USE AS CONTRACEPTIVES” (SPERMATECH AS, priority 2017, published 2020) can be followed below.

Each structure is given as a SMILES string.

Chain of LDHC (P07864 whole entry): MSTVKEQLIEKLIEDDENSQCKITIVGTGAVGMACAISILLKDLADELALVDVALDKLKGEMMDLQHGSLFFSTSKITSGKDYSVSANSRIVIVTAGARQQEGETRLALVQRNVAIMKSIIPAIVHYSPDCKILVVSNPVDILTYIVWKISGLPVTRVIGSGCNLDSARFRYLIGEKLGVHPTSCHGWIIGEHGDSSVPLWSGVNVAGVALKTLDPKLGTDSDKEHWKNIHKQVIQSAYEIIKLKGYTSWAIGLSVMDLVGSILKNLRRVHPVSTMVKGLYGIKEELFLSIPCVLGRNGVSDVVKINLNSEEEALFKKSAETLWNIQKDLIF

The experiment addresses LDHC (Homo sapiens, UniProt P07864). In words: Coupled diaphorase assay (LDHC inhibition). Particulars: 10 nM LDHC, 500 μM lactate, 150 μM NAD+, 3 μM resazurin, fluorescence readout of resorufin. It is filed as biochemical. The text has this: The inhibitory properties of the compounds were investigated using a coupled enzyme assay that links the lactate dehydrogenase (LDH) reaction to the production of fluorescent resorufin by diaphorase.
Human lactate dehydrogenases (LDH) catalyze the reversible interconversion between pyruvate and lactate. LDH is capable of catalyzing both the forward (pyruvate to lactate) and the reverse (lactate to pyruvate) reaction, using either NADH or NAD+ as cofactor. The reaction proceeds in either direction dependent on various factors, such as substrate availability, the presence of necessary cofactors, temperature and pH.
The coupled assay relies on the […] of NAD+ to NADH throughout the conversion of lactate to pyruvate by LDHC. The produced NADH serves as cofactor in the diaphorase reaction, which reduces non-fluorescent resazurin to fluorescent resorufin. Therefore, the assay indirectly monitors the rate of pyruvate production. Although the consumption or formation of NADH can be directly monitored due to the intrinsic fluorescence of the molecule (excitation: 340 nm, emission: 460 nm) there are problems linked to the direct readout method. It has been shown that many compounds in chemical libraries interfere with the assay due to fluorescent properties similar to NADH. Shifting the assay to longer wavelengths by coupling the LDH reaction to the conversion of resazurin to fluorescent resorufin by diaphorase reduces this compound interference. The assay direction was thus chosen to provide a robust and reliable assay.
For the determination of IC50 values a coupled diaphorase assay was adopted from Bembenek et al. (A Fluorescence-Based Coupling Reaction for Monitoring the Activity of Recombinant Human NAD Synthetase. ASSAY and Drug Development Technologies, 2005. 3(5): 533-541). Compounds were tested in duplicates using 2-fold, 3-fold or 4-fold serial dilutions including 11 individual concentrations, starting from 5000 μM to 30 μM depending on their activity in initial tests. Positive (without compound in the presence of DMSO) and inhibition controls (oxamate, 28.7 mM final concentration in assay) or no-substrate controls representing 100% inhibition were added. Oxamate is a well characterized inhibitor of LDH that inhibits LDH enzyme activity in the mM range in vitro with high specificity (Papacostantinou et al., J. Biol. Chem. 236: 278-284, 1961). The controls allowed for the calculation of the percentage inhibition for each data point. The assay buffer consisted of 50 mM HEPES pH 7.4, 5 mM MgCl2 and 0.05% pluronic acid F-127. Enzyme solution with final concentrations of 10 nM LDHC, as well as 0.2 U/ml diaphorase was dispensed into 384-well plates (Greiner bio-one) using a CyBi®-SELMA robotic pipettor. Compound dilutions and the enzyme were incubated for at least 15 to 20 min at room temperature. Thereafter, the substrate solution was added (final concentrations: 500 μM lactate, 150 μM NAD^+, 3 μM resazurin). The reaction was quenched by the addition of a stop solution (final concentrations: 20 mM EDTA, 400 mM NaCl, 40 mM pyruvate). Fluorescence was read out after 5 min of incubation at an excitation wavelength of 560 nm and an emission wavelength of 590 nm on a BMG labtech FLUOstar OPTIMA or a Perkin Elmer Victor X plate reader. […]
A general note: Resazurin is reduced to fluorescent resorufin, in cell work by metabolically active cells.
In general, IC50 refers to the point on the concentration scale where inhibition reaches its midpoint. Regarding `CC(C)CCOc1cccc(C2(c3ccsc3)CC(=O)C(Sc3ccccc3Cl)C(=O)N2)n1` (stereo not shown) [Example 12, 3-((2-chlorophenyl)thio)-6-(6-(isopentyloxy)pyridin-2-yl)-6-(thiophen-3-yl)piperidine-2,4-dione], the half-maximal inhibitory concentration (IC50) is 0.5 to 10 µM.

On to `O=C1CC(c2ccc(N3CCOCC3)cc2)(c2ccsc2)NC(=O)C1Sc1cc(Cl)ccc1Cl` (single isomer, unassigned) [6 Enantiomer 1], for which the half-maximal inhibitory concentration (IC50) lay within 10 to 50 µM. The figure for `O=C1CC(c2ccsc2)(c2cccc(OCC3CCCC3)n2)NC(=O)C1Sc1cc(Cl)ccc1Cl` (stereo not shown) [Example 3, 6-[6-(cyclopentylmethoxy)pyridin-2-yl]-3-[(2,5-dichlorophenyl)sulfanyl]-6-(thiophen-3-yl)piperidine-2,4-dione] is 0.5 to 10 µM. `O=C1CC(c2ccc(N3CCOCC3)cc2)(c2ccsc2)NC(=O)C1Sc1ccc(F)cc1Cl` (stereo not shown) [Example 5, 3-((2-chloro-4-fluorophenyl)thio)-6-(4-morpholinophenyl)-6-(thiophen-3-yl)piperidine-2,4-dione] showed an IC50 of 0.5 to 10 µM. As to `O=C1NC(c2ccc(N3CCOCC3)cc2)(c2ccsc2)CC(OC(=O)c2ccncc2)=C1Sc1cc(Cl)ccc1Cl` (stereo not shown) [Example 9, 5-((2,5-dichlorophenyl)thio)-2-(4-morpholinophenyl)-6-oxo-2-(thiophen-3-yl)-1,2,3,6-tetrahydropyridin-4-yl isonicotinate], the IC50 was 0.5 to 10 µM.

In turn, `O=C1CC(c2ccsc2)(c2cccc(OCC3CCCC3)n2)NC(=O)C1Sc1ccccc1Cl` (stereo not shown) [Example 8, 3-((2-chlorophenyl)thio)-6-(6-(cyclopentylmethoxy)pyridin-2-yl)-6-(thiophen-3-yl)piperidine-2,4-dione] gave an IC50 of 0.5 to 10 µM.

The compound `O=C1CC(c2ccc(N3CCOCC3)cc2)(c2ccsc2)NC(=O)C1Sc1ccccc1Cl` (single isomer, unassigned) [7 Enantiomer 1] registered an IC50 of 0.5 to 10 µM. The figure for `O=C1CC(c2ccc(N3CCOCC3)cc2)(c2ccsc2)NC(=O)C1Sc1cc(Cl)ccc1Cl` (racemic) [Example 6, 3-((2,5-dichlorophenyl)thio)-6-(4-morpholinophenyl)-6-(thiophen-3-yl)piperidine-2,4-dione] is 0.5 to 10 µM; for `O=C1CC(c2ccsc2)(c2cccc(OC3COC3)n2)NC(=O)C1Sc1ccccc1Cl` (stereo not shown) [Example 10, 3-((2-chlorophenyl)thio)-6-(6-(oxetan-3-yloxy)pyridin-2-yl)-6-(thiophen-3-yl)piperidine-2,4-dione] it is 10 to 50 µM; for `O=C1CC(c2ccsc2)(c2cccc(OCC3CCCC3)n2)NC(=O)C1Sc1cccc(Cl)c1Cl` (stereo not shown) [Example 4, 6-[6-(cyclopentylmethoxy)pyridin-2-yl]-3-[(2,3-dichlorophenyl)sulfanyl]-6-(thiophen-3-yl)piperidine-2,4-dione] it is 50 to 100 µM. To `O=C1CC(c2ccsc2)(c2cccc(OCC3CCCC3)n2)NC(=O)C1Sc1ccc(Cl)cc1Cl` (stereo not shown) [Example 1, 6-[6-(cyclopentylmethoxy)pyridin-2-yl]-3-[(2,4-dichlorophenyl)sulfanyl]-6-(thiophen-3-yl)piperidine-2,4-dione] belongs 50 to 100 µM. To `O=C1CC(c2ccsc2)(c2cccc(Cc3cccc(F)c3)n2)NC(=O)C1Sc1ccccc1Cl` (stereo not shown) [Example 11, 3-((2-chlorophenyl)thio)-6-(6-(3-fluorobenzyl)pyridin-2-yl)-6-(thiophen-3-yl)piperidine-2,4-dione] belongs 0.5 to 10 µM; to `O=C1CC(c2ccc(N3CCOCC3)cc2)(c2ccsc2)NC(=O)C1Sc1ccccc1Cl` (single isomer, unassigned) [7 Enantiomer 2], 10 to 50 µM. Regarding `O=C1CC(c2ccc(N3CCOCC3)cc2)(c2ccsc2)NC(=O)C1Sc1ccccc1Cl` (racemic) [Example 7, 3-((2-chlorophenyl)thio)-6-(4-morpholinophenyl)-6-(thiophen-3-yl)piperidine-2,4-dione], the IC50 lay within 0.5 to 10 µM. On to `O=C1CC(c2ccc(N3CCOCC3)cc2)(c2ccsc2)NC(=O)C1Sc1cc(Cl)ccc1Cl` (single isomer, unassigned) [6 Enantiomer 2], for which the IC50 lay within 50 to 100 µM.

As for `O=C1CC(c2ccsc2)(c2cccc(OCC3CCCC3)n2)NC(=O)C1Sc1ccc(F)cc1Cl` (stereo not shown) [Example 2, 3-[(2-chloro-4-fluorophenyl)sulfanyl]-6-[6-(cyclopentylmethoxy)pyridin-2-yl]-6-(thiophen-3-yl)piperidine-2,4-dione], the IC50 was in the range of 0.5 to 10 µM.
